Laboratory results from patent publication US7763594B2, “Compositions for the treatment of osteoarthritis and to nourish the synovial fluid” (Bioiberica, S.A., priority 2005, dated 2010).

Experiments:
[1] = system: metalloprotease activity (MMP-1-2-3-12-13); test: Inhibition of metalloprotease activity in IL-1β-stimulated human arthrosic chondrocytes (FRET substrate); format: cell-based; details: 24 hours preincubation, then 100 U/ml IL-1β for 24 hours; significance p<0.05
Method: Solutions were prepared with the two compositions of the invention. One of them contained 160 μg/ml of hyaluronic acid and 40 μg/ml of dermatan sulphate, and was compared to hyaluronic acid at a concentration of 160 μg/ml and to dermatan sulphate at a concentration of 40 μg/ml. The other composition contained 800 μg/ml of hyaluronic acid and 200 μg/ml of dermatan sulphate and was compared to hyaluronic acid at a concentration of 800 μg/ml and to dermatan sulphate at a concentration of 200 μg/ml. The chondrocytes were isolated from cartilage pieces (from knee or hip) from […] advanced osteoarthritis, by sequential enzymatic digestion: 1 hour with hyaluronidase (0.1 mg/ml), followed by 10 hours with collagenase (type IA, 2 mg/ml) at 37° C. in DMEM/Ham's F12 medium plus penicillin (100 U/ml) and streptomycin (100 μg/ml) in a controlled CO2 atmosphere. […] Cell viability was determined by the Trypan blue exclusion method, which was in excess of 95%. […] Subsequently, supernatants were transferred to a 96-well plaque for fluorescence analysis and the FRET substrate (QXLTM 520) was added for MMP-1-2-3-12-13. The plaque was shaked and fluorescence measured a different times with excitation and emission wavelengths set at 490 nm and 520 nm, respectively. […] Means and standard errors were calculated, and an analysis of variance and Dunnett's t-test were performed. […]

[2] = system: human osteoarthritic synoviocytes; test: Production of endogenous hyaluronic acid by human synoviocytes (ELISA of culture supernatant); format: cell-based
Method: The composition of the invention, the HA extraction and the HA fermentation were separately incubated with synoviocytes for 12 and 24-hour periods. The following concentrations were used, both of the composition of the invention and of the hyaluronic acids: 10 μg/ml, 100 μg/ml and 200 μg/ml.
Synovial tissues were obtained from three osteoarthritic joints.
Synovial tissue was introduced into a sterile vial with DMEM (Dulbecco's Modification of Eagle's Medium) (2%), penicillin (150 U/ml), streptomycin ([…]) and amphotericin B (2 μg/ml), and then placed in a refrigerator (temperature: 0-4° C.) for transferral to the cell culture area. The synovial tissue was diced into fragments approximately sized to 2×2×2 mm^3. The fragments were washed three times in culture medium (RPMI 2% P/S/A). 20 ml of culture medium with 10% trypsin was added, and then incubated in a water bath at 37° C. for 10-15 minutes. Subsequently, the synovium was digested with 25 ml of collagenase solution [2 mg/ml type II collagenase; 5% fetal calf serum (FCS); 2% P/S/A; 1% L-glutamine; and deoxyribonuclease I 0.1 mg/ml or 150 U/l in RPMI]. The vial was introduced into a rotary shaker at 37° C. for approximately 2-4 hours. The cells were strained through a nylon filter with 25 μm diameter pores. A cell count was conducted and the cells were grown to a density of 5,000 to 10,000 cell/cm^2 in culture bottles of 25 or 75 cm^2 surface. The culture medium used was RPM supplemented with 10% FCS, 1% P/S and 1% L-glutamine. The synoviocytes used in the experiments were all from passages 2-3.
Following a 24-hour period culture, the synoviocytes (100,000 cells per well in a 24-well plate with 250 μl of medium) were stimulated using the composition of the invention, the HA extraction and the HA fermentation for 12 and 24-hour periods. Then, the supernatant of the different wells was harvested. The endogenous hyaluronic acid content was measured using an ELISA (Corgenix Inc. USA).
Results are shown as the average of 9 individual experiments performed on the cultures. Results are expressed as averages±S.D. and S.E. The statistical analysis was done using a two-tailed unpaired Student's T-test. A statistical difference is considered significant when p<0.05.

Substance	reduction of metalloprotease activity (in words) [1]	level of endogenous hyaluronic acid in supernatant ([2]; 12-hour period, 100 μg/ml)	level of endogenous hyaluronic acid in supernatant ([2]; 12-hour period, 200 μg/ml)	level of endogenous hyaluronic acid in supernatant ([2]; 24-hour period, 100 μg/ml)	level of endogenous hyaluronic acid in supernatant ([2]; 24-hour period, 200 μg/ml)
hyaluronic acid [hyaluronic acid (HA)]	reduction of metalloprotease activity, albeit not at a statistically significant level	–	–	–	–
dermatan sulphate	reduction of metalloprotease activity, albeit not at a statistically significant level	–	–	–	–
sodium hyaluronate [HA fermentation]	–	9,724 ng/ml	62,618 ng/ml	15,706 ng/ml	72,594 ng/ml
hyaluronic acid [HA extraction]	–	25,762 ng/ml	–	27,634 ng/ml	91,538 ng/ml
